Experimental data: the supplement of paper PMC13380429

Legend:
Details in all cases: 72 h
Vero E6 [1] = assay: relative viability EC50 (midpoint between 100% and the lowest measured viability); higher = less toxic
HepG2 [2] = assay: as above
Calu-3 [3] = assay: as above
Caco-2 [4] = assay: as above
U2OS [5] = assay: as above
Vero E6 [6] = assay: drug sensitivity score (DSS) for viability; higher = more toxic; extreme values may be limits of the assay
HepG2 [7] = assay: as above
Calu-3 [8] = assay: as above
Caco-2 [9] = assay: as above
U2OS [10] = assay: as above
Vero E6 [11] = assay: cell viability relative to DMSO; higher = less toxic
HepG2 [12] = assay: as above
Calu-3 [13] = assay: as above
Caco-2 [14] = assay: as above
U2OS [15] = assay: as above

SMILES	relative viability EC50 (Vero E6 [1]) [µM]	relative viability EC50 (HepG2 [2]) [µM]	relative viability EC50 (Calu-3 [3]) [µM]	relative viability EC50 (Caco-2 [4]) [µM]	relative viability EC50 (U2OS [5]) [µM]	drug sensitivity score (Vero E6 [6])	drug sensitivity score (HepG2 [7])	drug sensitivity score (Calu-3 [8])	drug sensitivity score (Caco-2 [9])	drug sensitivity score (U2OS [10])	cell viability (Vero E6 [11]; 1 nM) [%]	cell viability (Vero E6 [11]; 10 nM) [%]	cell viability (Vero E6 [11]; 100 nM) [%]	cell viability (Vero E6 [11]; 1000 nM) [%]	cell viability (Vero E6 [11]; 10000 nM) [%]	cell viability (HepG2 [12]; 1 nM) [%]	cell viability (HepG2 [12]; 10 nM) [%]	cell viability (HepG2 [12]; 100 nM) [%]	cell viability (HepG2 [12]; 1000 nM) [%]	cell viability (HepG2 [12]; 10000 nM) [%]	cell viability (Calu-3 [13]; 1 nM) [%]	cell viability (Calu-3 [13]; 10 nM) [%]	cell viability (Calu-3 [13]; 100 nM) [%]	cell viability (Calu-3 [13]; 1000 nM) [%]	cell viability (Calu-3 [13]; 10000 nM) [%]	cell viability (Caco-2 [14]; 1 nM) [%]	cell viability (Caco-2 [14]; 10 nM) [%]	cell viability (Caco-2 [14]; 100 nM) [%]	cell viability (Caco-2 [14]; 1000 nM) [%]	cell viability (Caco-2 [14]; 10000 nM) [%]	cell viability (U2OS [15]; 1 nM) [%]	cell viability (U2OS [15]; 10 nM) [%]	cell viability (U2OS [15]; 100 nM) [%]	cell viability (U2OS [15]; 1000 nM) [%]	cell viability (U2OS [15]; 10000 nM) [%]
C=CC[C@@H]1/C=C(\C)C[C@H](C)C[C@H](OC)[C@H]2O[C@@](O)(C(=O)C(=O)N3CCCC[C@H]3C(=O)O[C@H](/C(C)=C/[C@@H]3CC[C@@H](O)[C@H](OC)C3)[C@H](C)[C@@H](O)CC1=O)[C@H](C)C[C@@H]2OC [tacrolimus]	> 10	> 10	> 10	> 10	> 10	0	0	0	0	0	96.3	91.6	88.5	90.3	108	108	99.6	103	98.2	104	99.1	103	96.6	100	107	99.8	101	88.8	103	93.8	96.9	102	98.7	104	98
CCNC(=O)N1CCN(CCCC(c2ccc(F)cc2)c2ccc(F)cc2)CC1 [amperozide]	> 10	> 10	> 10	> 10	> 10	0	0	0	1	0	98.7	98.6	100	99.2	94.1	98.5	102	91.9	103	93.7	97.6	103	95.7	106	94.4	96.5	96.6	85.6	94.1	81.4	97.5	103	94.4	100	95.3
C[C@]12CC[C@@H]3c4ccc(OC(=O)N(CCCl)CCCl)cc4CC[C@H]3[C@@H]1CC[C@@H]2OP(=O)(O)O [estramustine-phosphate]	> 10	> 10	> 10	> 10	> 10	0	0	0	0	0	95.1	103	94.9	107	92.8	98.3	90.8	101	95.4	104	99	105	90.2	99.9	116	115	89.9	92.2	94.3	94.9	102	100	98.7	97.3	99.1
Oc1ccc2c3c1O[C@H]1c4oc5ccccc5c4C[C@@]4(O)[C@@H](C2)N(CC2CC2)CC[C@]314 [naltriben]	> 10	> 10	> 10	> 10	> 10	0	0	0	0.3	0	90.9	101	93.3	96.4	108	102	120	93.5	99.7	99	105	85.1	105	87.7	99.5	91.7	91.9	102	98.6	86.5	101	101	100	101	99.8
NC(N)=Nc1nc(CSCC/C(N)=N/S(N)(=O)=O)cs1 [Famotidine]	> 10	> 10	> 10	> 10	> 10	0	0	0	0	0	106	105	95.2	102	96.7	101	97.4	87.9	100	85.4	84	106	89.8	106	90.1	101	101	93.9	96.8	96.8	98	104	98.6	108	97.5
CC1/C=C/C=C/C=C/C=C/C=C/C=C/C=C/C(OC2O[C@H](C)[C@@H](O)[C@H](N)[C@@H]2O)CC(O)C(C(=O)O)C(O)CC(=O)CC(O)CC(O)CC(O)CC(=O)CCCC(=O)CC(=O)OC1C(C)CC(C)C(O)CC(=O)c1ccc(N)cc1 (stereo not given in full) [candicidin]	> 10	> 10	> 10	> 10	> 10	0.6	0	0	0	0	101	104	96.7	104	77.2	109	96.4	103	103	98.6	101	102	102	104	97.5	82	90.8	87.1	92	77.1	105	99.9	101	101	96.8
CC(=O)Nc1ccc(Cc2ccc(NC(C)=O)cc2)cc1 [FH1]	> 10	> 10	> 10	> 10	> 10	0	0	0	0	0	99.8	98.1	96.8	102	98.9	99.5	104	107	102	96.8	95.7	99.9	84.2	92.8	104	107	100	104	93.7	102	98.8	96.6	99.4	104	103
CC(=O)OCC(=O)[C@@]1(O)CC[C@H]2[C@@H]3CCC4=CC(=O)CC[C@]4(C)[C@H]3C(=O)C[C@@]21C [cortisone-acetate]	> 10	> 10	> 10	> 10	> 10	0	0	0	0	0	87.9	97.5	96.4	101	99.3	90	110	104	110	101	93.2	98.5	98.9	106	101	108	95.4	101	96.3	103	99.6	98.1	97	101	95.1
CCN1C[C@H](C)n2c(c(O)c3c(=O)n(Cc4ccc(F)c(Cl)c4)nc(C(=O)NC)c32)C1=O [MK-2048]	> 10	> 10	> 10	> 10	> 10	0	0	0	0	0	101	100	105	101	98	110	106	93.9	100	98.4	91.3	90.2	92.3	98.2	93.7	97.2	96	93.2	94.7	87.4	101	96.3	102	98.5	97.8
NC(=O)c1ccc(-c2nc(-c3ccccn3)c(-c3ccc4c(c3)OCO4)[nH]2)cc1	> 10	> 10	> 10	> 10	> 10	0	0.7	0	0	0	98.3	92.4	96.1	97.8	105	107	93.6	103	96	83.9	92.2	95	91.9	110	103	89.3	106	92.5	106	101	91.2	96.6	96	97.1	92.4
O[C@@](Cc1nc(CC2(C(F)(F)F)CC2)c[nH]1)(c1ccc(-n2cccn2)cc1)C(F)(F)F [MK-5046]	> 10	> 10	> 10	> 10	> 10	0	0	0	0.1	0	97.8	96.7	98.5	100	98.2	99.5	101	104	94.7	96.6	107	95.3	105	110	87.5	102	115	98.8	97	88.4	96	96.9	92.8	96.3	90.8
OC[C@H]1NCC[C@@H](O)[C@@H]1O [fagomine]	> 10	> 10	> 10	> 10	> 10	0	0	0	0.3	0	95.6	93.5	93.1	94.5	92.7	98.9	97.4	93.3	90.2	94.6	111	103	97	104	99.8	89	91.9	93.8	87.2	87.9	97.9	100	93.8	97.1	94.8
Cc1ccc(S(=O)(=O)c2ccc([N+](=O)[O-])o2)cc1	3.06	2.09	2.33	2.16	1.47	5.8	7.8	7.2	7.6	9.6	94.6	99.1	97.9	98.5	-0.1	84.3	100	102	86.7	0	98	89.7	101	89.9	0	97.1	96.6	105	87.6	0	97.5	95.1	109	72.4	0
Nc1ncnc2c1nc(Br)n2[C@@H]1O[C@@H]2COP(=O)(O)O[C@H]2[C@H]1O [8-bromo-cAMP]	> 10	> 10	> 10	> 10	> 10	0	0	0	0.7	0	100	102	103	102	96	95.2	96.5	93.1	98.2	85.7	92.8	104	95.9	103	95.8	106	95.8	97.8	98.5	81.5	102	96.8	105	99	102
Cc1cc(N2CCOCC2)cc2[nH]c(-c3c(NC[C@@H](O)c4cccc(Cl)c4)cc[nH]c3=O)nc12	1.75	0.45	1.44	1.16	1.45	4.3	10.1	6	6.2	7.6	89.3	101	90.6	90.2	49.9	101	101	80.2	58.8	31.2	89.8	102	96.7	81.9	38.3	102	93.9	99.4	76.8	43	97.2	97.2	95.9	78	22.5
Nc1ccn([C@@H]2CS[C@H](CO)O2)c(=O)n1 [lamivudine]	> 10	> 10	> 10	> 10	> 10	0	0	0	0.7	0	102	105	97.4	85.8	99.2	93.9	93.4	98.8	99.1	106	107	89.6	89.4	96.9	97.6	83	100	89.3	88.7	84.5	96.9	102	97.7	102	97.1
Cc1ncc(CN2CC=C(c3ccccc3)CC2)c(N)n1 [Ro-10-5824]	> 10	> 10	> 10	> 10	> 10	0	0	0	0	0	92.7	108	88.5	99.2	108	91.8	104	108	115	112	103	95.6	103	99.5	99.5	102	105	96.8	97.1	96.8	101	95.3	102	95.8	96.9
CCOC(=O)[C@H](CCc1ccccc1)N[C@@H](C)C(=O)N1CCC[C@H]1C(=O)O [enalapril]	> 10	> 10	> 10	> 10	> 10	0	0	0	0	0	97.2	99.3	98.2	100	107	103	95.4	98.4	109	109	90.5	98.3	92.2	101	91.9	92.4	97.1	84.1	102	100	97.9	101	99.5	98.6	102
Ic1cncc(OC[C@@H]2CCN2)c1	> 10	> 10	> 10	> 10	> 10	0	0	0	0	0	97.4	92.7	96.6	95.3	102	94	94	99.4	98	105	98.4	98.4	102	97	102	102	97.2	94	100	108	92.1	102	96.7	99.5	106
CCOc1ccc(Cc2cc([C@@H]3O[C@H](SC)[C@@H](O)[C@H](O)[C@H]3O)ccc2Cl)cc1 [sotagliflozin]	> 10	> 10	> 10	> 10	> 10	0	0	0	0	0	94.6	97.2	95.4	95.8	102	90.3	101	98.4	101	91.8	91.4	94.1	112	97.7	99.8	98.3	102	100	92.5	91.1	97.7	95	100	97.6	95.4
CC[C@@H](CO)NC(=O)[C@@H]1C=C2c3cccc4c3c(cn4C)C[C@H]2N(C)C1 [methysergide]	> 10	> 10	> 10	> 10	> 10	0	0	0	0	0	96	100	91.9	99.7	111	94.8	96.9	102	102	111	88.7	99.1	102	97	102	95.9	89.6	100	94.3	110	101	96.1	100	92.3	98.7
